Data reported in ChEMBL document CHEMBL5724558, “Image-based profiling of drug vulnerabilities in CRC organoids” (2024).
“And” between values parts separate entries of the source, which are not always exact repeats. Equal values may be shown once.

How the values were obtained:
Type in all cases: functional, Homo sapiens
Set-up in all cases: dose or concentration left out as unconfirmed
Colon cancer organoid [1] = experiment: (§1) Image-based profiling of donated chemical probes and chemogenomic kinase set in O06 CRC organoid. Image analysis is performed on the sum area metric, and the data were normalized to the DMSO control. After imaging the organoid viability is measured using the OneGloEX Luciferase Assay System. The normalized viability data and sum area are reported.
Colon cancer organoid [2] = experiment: as §1, with “O21” for “O06”
Colon cancer organoid [3] = experiment: as §1, with “O09” for “O06”

Structure (SMILES) | Cell Viability (Colon cancer organoid [1]; Replication number 1) | Cell Viability (Colon cancer organoid [1]; Replication number 2) | Cell Viability (Colon cancer organoid [2]; Replication number 1) | Cell Viability (Colon cancer organoid [2]; Replication number 2) | Cell Viability (Colon cancer organoid [3]; Replication number 1) | Cell Viability (Colon cancer organoid [3]; Replication number 2)
Cc1c(NC(=O)c2ccc(C(C)(C)C)cc2)cccc1-c1cn(C)c(=O)c(Nc2ccc(C(=O)N3CCOCC3)cc2)n1 | 119.85% and 118.543% | 84.412% and 97.7895% | 86.5232% and 101.491% | 97.7388% and 99.4222% | 87.7094% and 99.5999% | 109.316% and 107.058%
Cc1sc2c(c1C)C(c1ccc(Cl)cc1)=N[C@@H](CC(=O)OC(C)(C)C)c1nnc(C)n1-2 | 19.6589% and 56.2953% | 20.5614% and 51.6198% | 79.5251% and 85.2384% | 67.4511% and 80.5489% | 38.4274% and 33.3849% | 47.2906% and 27.9949%
COc1cc2c(cc1-c1c(C)noc1C)ncc1[nH]c(=O)n([C@H](C)c3ccccn3)c12 | 37.8038% and 58.2282% | 43.3272% and 66.9145% | 88.6726% and 67.015% | 110.558% and 99.8807% | 51.0073% and 39.6445% | 53.9016% and 48.1786%
COc1cc(-c2cn([C@H]3CCc4c(F)cccc4N(CC(F)(F)F)C3=O)nn2)ccc1-n1cnc(C)c1 | 98.6748% and 98.829% | 105.811% and 104.708% | 110.846% and 137.969% | 98.2534% and 104.592% | 81.2479% and 97.2392% | 40.0152% and 77.6926%
Cc1c(C(=O)Nc2ccc(Oc3ccnc4[nH]cc(-c5ccccc5)c34)c(F)c2)c(=O)n(-c2ccc(F)cc2)n1C | 83.9357% and 96.3695% | 67.8056% and 89.2545% | 102.708% and 102.021% | 105.094% and 114.574% | 202.234% and 105.47% | 155.309% and 109.6%
CCc1cc2cc(NS(=O)(=O)c3ccc(C#N)cc3)ccc2n(CC)c1=O | 145.787% and 148.591% | 141.244% and 141.715% | 101.899% and 123.449% | 90.9641% and 104.714% | 136.869% and 118.47% | 168.563% and 119.449%
Cn1c(=O)[nH]c2cc(N3C(=O)c4cccc5c(CCCO)ccc(c45)C3=O)ccc21 | 78.0892% and 58.7114% | 114.692% and 105.151% | 119.202% and 111.104% | 123.504% and 100.955% | 172.196% and 101.777% | 101.158% and 94.3617%
CN(C)C(=O)Cn1cc(-c2ccc(-c3cncc4ccccc34)cc2)cn1 | 73.9778% and 127.973% | 75.2678% and 99.5373% | 132.258% and 129.895% | 113.21% and 111.119% | 314.332% and 120.679% | 170.131% and 105.821%
CC(C)(O)[C@H](F)CN1Cc2cc(NC(=O)c3cnn4cccnc34)c(N3CCOCC3)cc2C1=O | 109.705% and 119.757% | 130.929% and 135.992% | 101.018% and 118.952% | 110.562% and 109.619% | 71.2325% and 98.662% | 94.649% and 96.9469%
Cc1cn(-c2cc(NC(=O)c3ccc4c(c3)CN(c3cncnc3)C[C@@H]4C)cc(C(F)(F)F)c2)cn1 | 59.0694% and 78.9076% | 95.3584% and 115.454% | 90.5152% and 91.8083% | 113.206% and 94.0752% | 138.868% and 108.886% | 120.836% and 109.134%
Cc1cccc(-c2cnc3occ(-c4ccc(C(=O)O)c(C5CCCC5)c4)c3c2)c1 | 91.6718% and 109.086% | 100.62% and 106.871% | 122.241% and 115.611% | 124.793% and 91.2416% | 143.367% and 90.8211% | 122.111% and 97.0079%
COc1cc(-c2cn([C@H]3CCc4ccccc4N(CC(F)(F)F)C3=O)nn2)ccc1-n1ccc(C)n1 | 93.8708% and 97.1897% | 92.3722% and 127.214% | 95.5395% and 92.5614% | 105.607% and 89.2857% | 31.4153% and 64.0297% | 67.1931% and 101.059%
O=C(NCCCN1CCOC1=O)c1cnc(NCc2cc(Br)ccc2Br)nc1NC1CCCC1 | 128.504% and 125.145% | 109.486% and 115.731% | 88.4413% and 90.6749% | 101.16% and 88.408% | 172.879% and 128.436% | 143.806% and 111.114%
